Our source for the mutagenic call values is PubChem BioAssay AID1259407 (Chemical Carcinogenesis Research Information System (CCRIS), 2018).

The data set concerns CCRIS mutagenicity, Ames/micronucleus/aberration tests. Description: CCRIS mutagenicity studies.
[1] abbreviates: Test System: AMES SALMONELLA TYPHIMURIUM, Strain/Indicator: TA100, Metabolic Activation: NONE, Method: PREINCUBATION
Where [2] appears, read: Test System: AMES SALMONELLA TYPHIMURIUM, Strain/Indicator: TA100, Metabolic Activation: NONE, Method: STANDARD PLATE.
[3] abbreviates: Test System: AMES SALMONELLA TYPHIMURIUM, Strain/Indicator: TA98, Metabolic Activation: NONE, Method: PREINCUBATION
Setting [4] is: Test System: CHINESE HAMSTER OVARY, Strain/Indicator: CHO-K1-BH4 (HGPRT)/6-THIOGUANINE, Metabolic Activation: NONE.
Where [5] appears, read: Test System: AMES SALMONELLA TYPHIMURIUM, Strain/Indicator: TA98, Metabolic Activation: NONE, Method: STANDARD PLATE.
Setting [6] is: Test System: AMES SALMONELLA TYPHIMURIUM, Strain/Indicator: TA98, Metabolic Activation: RAT, LIVER, S-9, AROCLOR 1254, Method: STANDARD PLATE.
Where [7] appears, read: Test System: AMES SALMONELLA TYPHIMURIUM, Strain/Indicator: TA100, Metabolic Activation: RAT, LIVER, S-9, AROCLOR 1254, Method: STANDARD PLATE.

Calls of active or inactive are those of the source. No rule for the calls is given here.

For the compound `C=C(Br)C=O`, the mutagenic call is, setting by setting: (Test System: AMES SALMONELLA TYPHIMURIUM, Strain/Indicator: TA100, Metabolic Activation: NONE, Method: LIQUID INCUBATION) “active; positive”; under setting [1], “active; positive”; (Test System: AMES SALMONELLA TYPHIMURIUM, Strain/Indicator: TA100, Metabolic Activation: NONE, Method: PREINCUBATION, LIQUID INCUBATION) “active; positive”; under setting [2], “active; positive”; (Test System: AMES SALMONELLA TYPHIMURIUM, Strain/Indicator: TA100, Metabolic Activation: RAT, LIVER, MICROSOMES, Method: PREINCUBATION) “active; positive”; (Test System: AMES SALMONELLA TYPHIMURIUM, Strain/Indicator: TA104, Metabolic Activation: NONE, Method: PREINCUBATION) “active; positive”. Also, the mutagenic call is, setting by setting: (Test System: AMES SALMONELLA TYPHIMURIUM, Strain/Indicator: TA1535, Metabolic Activation: NONE, Method: LIQUID INCUBATION) “active; positive”; (Test System: AMES SALMONELLA TYPHIMURIUM, Strain/Indicator: TA1535, Metabolic Activation: NONE, Method: PREINCUBATION, LIQUID INCUBATION) “active; positive”; (Test System: UDS RAT HEPATOCYTES, Strain/Indicator: THY INCORP, Metabolic Activation: NONE) “inactive; negative”.

With `O=C(Cl)C(Cl)Cl`, the mutagenic call is, setting by setting: (Test System: AMES SALMONELLA TYPHIMURIUM, Strain/Indicator: TA98, Metabolic Activation: HAMSTER, LIVER, S-9, AROCLOR 1254 (30%), Method: PREINCUBATION) “inactive; negative”; under setting [3], “inactive; negative”; (Test System: AMES SALMONELLA TYPHIMURIUM, Strain/Indicator: TA98, Metabolic Activation: RAT, LIVER, S-9, AROCLOR 1254 (30%), Method: PREINCUBATION) “inactive; negative”; (Test System: AMES SALMONELLA TYPHIMURIUM, Strain/Indicator: TA100, Metabolic Activation: HAMSTER, LIVER, S-9, AROCLOR 1254 (30%), Method: PREINCUBATION) “inactive; negative”; (Test System: AMES SALMONELLA TYPHIMURIUM, Strain/Indicator: TA100, Metabolic Activation: NONE, Method: BAG VAPORIZATION) “active; positive”; under setting [1], “active; positive”. Also, the mutagenic call is “inactive; negative” (Test System: AMES SALMONELLA TYPHIMURIUM, Strain/Indicator: TA100, Metabolic Activation: RAT, LIVER, S-9, AROCLOR 1254 (30%), Method: PREINCUBATION) and “inactive; negative” (Test System: AMES SALMONELLA TYPHIMURIUM, Strain/Indicator: TA100, Metabolic Activation: RAT, LIVER, S-9, AROCLOR 1254, Method: BAG VAPORIZATION).

In the case of `C=CC1CC2C=CC1C2` (stereo not drawn), the mutagenic call runs as follows: under setting [3], “inactive; negative”; (Test System: AMES SALMONELLA TYPHIMURIUM, Strain/Indicator: TA98, Metabolic Activation: RAT LIVER S-9, AROCLOR 1254, Method: PREINCUBATION) “inactive; negative”; under setting [1], “inactive; negative”; (Test System: AMES SALMONELLA TYPHIMURIUM, Strain/Indicator: TA100, Metabolic Activation: RAT LIVER S-9, AROCLOR 1254, Method: PREINCUBATION) “inactive; negative”; (Test System: AMES SALMONELLA TYPHIMURIUM, Strain/Indicator: TA1535, Metabolic Activation: NONE, Method: PREINCUBATION) “inactive; negative”; (Test System: AMES SALMONELLA TYPHIMURIUM, Strain/Indicator: TA1535, Metabolic Activation: RAT LIVER S-9, AROCLOR 1254, Method: PREINCUBATION) “inactive; negative”. Besides, the mutagenic call is, setting by setting: (Test System: AMES SALMONELLA TYPHIMURIUM, Strain/Indicator: TA1537, Metabolic Activation: NONE, Method: PREINCUBATION) “inactive; negative”; (Test System: AMES SALMONELLA TYPHIMURIUM, Strain/Indicator: TA1537, Metabolic Activation: RAT LIVER S-9, AROCLOR 1254, Method: PREINCUBATION) “inactive; negative”; (Test System: AMES SALMONELLA TYPHIMURIUM, Strain/Indicator: TA1538, Metabolic Activation: NONE, Method: PREINCUBATION) “inactive; negative”; (Test System: AMES SALMONELLA TYPHIMURIUM, Strain/Indicator: TA1538, Metabolic Activation: RAT LIVER S-9, AROCLOR 1254, Method: PREINCUBATION) “inactive; negative”; under setting [4], “inactive; negative”; (Test System: CHINESE HAMSTER OVARY, Strain/Indicator: CHO-K1-BH4 (HGPRT)/6-THIOGUANINE, Metabolic Activation: RAT LIVER S-9, AROCLOR 1254) “inactive; negative”.

`Cc1cc(Cc2ccc(N)c(C)c2)ccc1N`: the mutagenic call is, setting by setting: under setting [3], “inactive; negative”; (Test System: AMES SALMONELLA TYPHIMURIUM, Strain/Indicator: TA98, Metabolic Activation: RAT, LIVER, S-9, PCB, Method: PREINCUBATION) “inactive; negative”; under setting [1], “inactive; negative”; (Test System: AMES SALMONELLA TYPHIMURIUM, Strain/Indicator: TA100, Metabolic Activation: RAT, LIVER, S-9, PCB, Method: PREINCUBATION) “inactive; negative”.

`ClCc1ccccn1`: the mutagenic call by setting is: (Test System: AMES SALMONELLA TYPHIMURIUM, Strain/Indicator: TA97, Metabolic Activation: NONE, Method: STANDARD PLATE) “inactive; negative”; (Test System: AMES SALMONELLA TYPHIMURIUM, Strain/Indicator: TA97, Metabolic Activation: RAT, LIVER, S-9, AROCLOR 1254, Method: STANDARD PLATE) “inactive; negative”; under setting [5], “inactive; negative”; under setting [6], “inactive; negative”; under setting [2], “active; positive”; under setting [7], “active; positive”. In addition, the mutagenic call (Test System: AMES SALMONELLA TYPHIMURIUM, Strain/Indicator: TA102, Metabolic Activation: NONE, Method: STANDARD PLATE) is “inactive; negative”; the mutagenic call (Test System: AMES SALMONELLA TYPHIMURIUM, Strain/Indicator: TA102, Metabolic Activation: RAT, LIVER, S-9, AROCLOR 1254, Method: STANDARD PLATE) was “inactive; negative”; the mutagenic call under setting [4] was “active; positive”; the mutagenic call (Test System: CHINESE HAMSTER OVARY, Strain/Indicator: CHO-K1-BH4 (HGPRT)/6-THIOGUANINE, Metabolic Activation: S-9) is “inactive; negative”.

Regarding `O=[N+]([O-])c1ccc2[nH]ncc2c1`, the mutagenic call is, setting by setting: (Test System: AMES SALMONELLA TYPHIMURIUM, Strain/Indicator: TA98, Metabolic Activation: HAMSTER, LIVER, S-9, AROCLOR 1254, Method: STANDARD PLATE) “active; positive”; under setting [5], “active; positive”; under setting [6], “active; positive”; (Test System: AMES SALMONELLA TYPHIMURIUM, Strain/Indicator: TA100, Metabolic Activation: HAMSTER, LIVER, S-9, AROCLOR 1254, Method: STANDARD PLATE) “active; positive”; under setting [2], “active; positive”; under setting [7], “active; positive”. For the same compound, the mutagenic call runs as follows: (Test System: MOUSE LYMPHOMA, Strain/Indicator: L5178Y (TK+/TK-), Metabolic Activation: NONE, Method: SUSPENSION/PLATE) “inactive; negative. reevaluation of results: negative”; (Test System: MOUSE LYMPHOMA, Strain/Indicator: L5178Y (TK+/TK-), Metabolic Activation: RAT, LIVER, S-9, AROCLOR 1254, Method: SUSPENSION/PLATE) “inactive; negative. reevaluation of results: negative”.

Consider `C1=Cc2c3ccccc3cc3cc4ccccc4c1c23`, for which the mutagenic call is “active; positive” under setting [5] and “active; positive” (Test System: AMES SALMONELLA TYPHIMURIUM, Strain/Indicator: TA98, Metabolic Activation: RAT, LIVER, S-9, AROCLOR 1254 (0.127 OR 1.27 MG S-9 PROTEIN), Method: STANDARD PLATE).
